Reference: patent US20250346593A1, “IMIDAZO(1,2-1)PYRIDINE DERIVATIVES AS RIPK2 INHIBITORS” (Interline Therapeutics, Inc., priority 2022, published 2025)
Read-outs that look alike come from different tables or passages of the source.

Experiments:
[1] = test system: NF-κB pathway (SEAP) in THP1-Dual cells; test: THP-1 Dual cell SEAP assay (L18-MDP stimulated); type: cell-based; details: Homo sapiens, THP1-Dual, read-out: NFkB THP1 IC50
[2] = molecular target: GST-RIPK2 fusion protein (human RIPK2 amino acids 1-310) (Homo sapiens (Human), UniProt O43353); test: RIPK2 binding competition assay (TR-FRET, Tracer 199)
GST-RIPK2 fusion protein (human RIPK2 amino acids 1-310), sequence (O43353 1-310): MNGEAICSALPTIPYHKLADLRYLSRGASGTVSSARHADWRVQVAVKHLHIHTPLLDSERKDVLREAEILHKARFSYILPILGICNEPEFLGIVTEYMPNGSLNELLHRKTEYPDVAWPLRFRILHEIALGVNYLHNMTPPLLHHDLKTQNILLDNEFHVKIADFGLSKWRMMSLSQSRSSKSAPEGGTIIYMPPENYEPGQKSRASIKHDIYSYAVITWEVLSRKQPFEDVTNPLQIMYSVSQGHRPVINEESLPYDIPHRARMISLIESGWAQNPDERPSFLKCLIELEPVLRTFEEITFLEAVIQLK

[3] = read-out: RIPK2 IC50, RIPK2 binding competition assay

Compound	IC50 [1]	IC50 [2, 3]	IC50 [2]
COc1cc2ncc(-c3cc(NCCCO)ncc3C)n2cc1S(=O)(=O)C(C)(C)C [Example 309, 3-({4-[7-Methoxy-6-(2-methylpropane-2-sulfonyl)imidazo[1,2-a]pyridin-3-yl]-5-methylpyridin-2-yl}amino)propan-1-ol]	> 1 µM	> 0.02 µM	
COc1cc2ncc(-c3cc(NCCCO)ncc3F)n2cc1S(=O)(=O)C(C)(C)C [Example 310, 3-((4-(6-(tert-butylsulfonyl)-7-methoxyimidazo[1,2-a]pyridin-3-yl)-5-fluoropyridin-2-yl)amino)propan-1-ol]	> 1 µM	> 0.02 µM	
COc1cc2ncc(-c3cc(C)c(OC)c(NCCCO)n3)n2cc1S(=O)(=O)C(C)(C)C [Example 311, 3-((6-(6-(tert-butylsulfonyl)-7-methoxyimidazo[1,2-a]pyridin-3-yl)-3-methoxy-4-methylpyridin-2-yl)amino)propan-1-ol]	0.25 to 1 µM		0.0025 to 0.02 µM
COc1cc2ncc(-c3ccc(OC)c(NCCCO)n3)n2cc1S(=O)(=O)C(C)(C)C [Example 312, 3-((6-(6-(tert-butylsulfonyl)-7-methoxyimidazo[1,2-a]pyridin-3-yl)-3-methoxypyridin-2-yl)amino)propan-1-ol]	0.25 to 1 µM		0.0025 to 0.02 µM
CCCS(=O)(=O)Nc1nc(-c2cnc3cc(OC)c(S(=O)(=O)C(C)(C)C)cn23)ccc1OC(F)(F)F [Example 313, N-(6-(6-(tert-butylsulfonyl)-7-methoxyimidazo[1,2-a]pyridin-3-yl)-3-(trifluoromethoxy)pyridin-2-yl)propane-1-sulfonamide]	> 1 µM	> 0.02 µM	
COc1cc2ncc(-c3cc(F)nc(F)c3)n2cc1S(=N)(=O)C(C)(C)C (stereo not drawn) [Example 315, tert-butyl(3-(2,6-difluoropyridin-4-yl)-7-methoxyimidazo[1,2-a]pyridin-6-yl)(imino)-λ^6-sulfanone]	> 1 µM	> 0.02 µM	
COc1cc2ncc(-c3cc(F)nc(NCC4CCN(C(C)=O)CC4)c3)n2cc1S(=O)(=O)C(C)(C)C [Example 317, 1-(4-(((4-(6-(tert-butylsulfonyl)-7-methoxyimidazo[1,2-a]pyridin-3-yl)-6-fluoropyridin-2-yl)amino)methyl)piperidin-1-yl)ethan-1-one]	< 0.05 µM	< 0.001 µM	
COc1cc2ncc(-c3cc(F)c(OC)c(NCCCO)c3)n2cc1S(=O)(=O)C(C)(C)C [Example 319, 3-((5-(6-(tert-butylsulfonyl)-7-methoxyimidazo[1,2-a]pyridin-3-yl)-3-fluoro-2-methoxyphenyl)amino)propan-1-ol]	0.05 to 0.25 µM		0.001 to 0.0025 µM
COc1cc2ncc(-c3cccc(NCCCO)c3)n2cc1S(=O)(=O)C(C)(C)C [Example 320, 3-((3-(6-(tert-butylsulfonyl)-7-methoxyimidazo[1,2-a]pyridin-3-yl)phenyl)amino)propan-1-ol]	> 1 µM	> 0.02 µM	
COc1cc2ncc(-c3cc(C)c(OC)c(NCCCO)c3)n2cc1S(=O)(=O)C(C)(C)C [Example 322, 3-((5-(6-(tert-butylsulfonyl)-7-methoxyimidazo[1,2-a]pyridin-3-yl)-2-methoxy-3-methylphenyl)amino)propan-1-ol]	> 1 µM		0.0025 to 0.02 µM
COc1cc2ncc(-c3cnn(CCCO)c3)n2cc1S(=O)(=O)C(C)(C)C [Example 323, 3-(4-(6-(tert-butylsulfonyl)-7-methoxyimidazo[1,2-a]pyridin-3-yl)-1H-pyrazol-1-yl)propan-1-ol]	> 1 µM	> 0.02 µM	
COc1cc2ncc(-c3cnn(CCO)c3)n2cc1S(=O)(=O)C(C)(C)C [Example 324, 2-(4-(6-(tert-butylsulfonyl)-7-methoxyimidazo[1,2-a]pyridin-3-yl)-1H-pyrazol-1-yl)ethan-1-ol]	> 1 µM	> 0.02 µM	
CCCS(=O)(=O)N(C)c1cc(-c2cnc3cc(OC)c(S(=O)(=O)C(C)(C)C)cn23)cc(OC)c1C [Example 325, N-(5-(6-(tert-butylsulfonyl)-7-methoxyimidazo[1,2-a]pyridin-3-yl)-3-methoxy-2-methylphenyl)-N-methylpropane-1-sulfonamide]	> 1 µM	> 0.02 µM	
CNc1cc(-c2cnc3cc(OC)c(S(=O)(=O)C(C)(C)C)cn23)cc(OC)c1OC [Example 326, 5-(6-(tert-butylsulfonyl)-7-methoxyimidazo[1,2-a]pyridin-3-yl)-2,3-dimethoxy-N-methylaniline]	0.05 to 0.25 µM		0.001 to 0.0025 µM
COc1cc2ncc(-c3cc(Cl)nc(NCCCO)c3)n2cc1S(=O)(=O)C(C)(C)C [Example 327, 3-((4-(6-(tert-butylsulfonyl)-7-methoxyimidazo[1,2-a]pyridin-3-yl)-6-chloropyridin-2-yl)amino)propan-1-ol]	< 0.05 µM		0.001 to 0.0025 µM
COc1cc2ncc(-c3cc(N)c(=O)n(C(F)F)c3)n2cc1S(=O)(=O)C(C)(C)C [Example 328, 3-amino-5-(6-(tert-butylsulfonyl)-7-methoxyimidazo[1,2-a]pyridin-3-yl)-1-(difluoromethyl) pyridin-2(1H)-one]	> 1 µM	> 0.02 µM	
COc1cc2ncc(-c3cc(F)c(OC)c(NCCN)c3)n2cc1S(=O)(=O)C(C)(C)C [Example 329, N1-(5-(6-(tert-butylsulfonyl)-7-methoxyimidazo[1,2-a]pyridin-3-yl)-3-fluoro-2-methoxyphenyl) ethane-1,2-diamine]	0.25 to 1 µM		0.0025 to 0.02 µM
CC(C)(C)S(=O)(=O)c1ccc2ncc(-c3cc(N)nc(F)c3)n2c1 [Example 330, 4-(6-(tert-butylsulfonyl)imidazo[1,2-a]pyridin-3-yl)-6-fluoropyridin-2-amine]	0.25 to 1 µM		0.0025 to 0.02 µM
CCc1ccc(-c2cnc3cc(OC)c(S(=O)(=O)C(C)(C)C)cn23)nc1N [Example 331, 6-(6-(tert-butylsulfonyl)-7-methoxyimidazo[1,2-a]pyridin-3-yl)-3-ethylpyridin-2-amine]	> 1 µM	> 0.02 µM	
COc1cc2ncc(-c3ccc(C)c(N)n3)n2cc1S(=O)(=O)C(C)(C)C [Example 332, 6-(6-(tert-butylsulfonyl)-7-methoxyimidazo[1,2-a]pyridin-3-yl)-3-methylpyridin-2-amine]	> 1 µM	> 0.02 µM	
COc1cc2ncc(-c3cc(N)c(C#N)c(F)c3)n2cc1S(=O)(=O)C(C)(C)C [Example 333, 2-amino-4-(6-(tert-butylsulfonyl)-7-methoxyimidazo[1,2-a]pyridin-3-yl)-6-fluorobenzonitrile]	0.25 to 1 µM		0.0025 to 0.02 µM
COc1cc2ncc(-c3ccc(OC(F)(F)F)c(N)n3)n2cc1S(=O)(=O)C(C)(C)C [Example 334, 6-(6-(tert-butylsulfonyl)-7-methoxyimidazo[1,2-a]pyridin-3-yl)-3-(trifluoromethoxy)pyridin-2-amine]	> 1 µM	> 0.02 µM	
COc1cc2ncc(-c3cc(C)c(OC)c(N)n3)n2cc1S(=O)(=O)C(C)(C)C [Example 335, 6-(6-(tert-butylsulfonyl)-7-methoxyimidazo[1,2-a]pyridin-3-yl)-3-methoxy-4-methylpyridin-2-amine]	> 1 µM		> 0.02 µM
COc1cc2ncc(-c3ccc(OC)c(N)n3)n2cc1S(=O)(=O)C(C)(C)C [Example 336, 6-(6-(tert-butylsulfonyl)-7-methoxyimidazo[1,2-a]pyridin-3-yl)-3-methoxypyridin-2-amine]	> 1 µM	> 0.02 µM	
